Measurements reported in patent US20230116602A1, “MCL1 INHIBITORS AND USES THEREOF” (California Institute of Technology, priority 2019, published 2023).

Experiments:
MCL1 = MCL1 (Homo sapiens, UniProt Q07820); test: MCL1 affinity assay (competition binding, qPCR readout); conditions: recombinant MCL1, 11-point 3-fold dilution series
Description: Recombinant MCL1, BCL2 and BCXL proteins were prepared in either an E. coli host derived from the BL21 strain or in HEK-293 cells. The recombinant proteins were subsequently tagged with DNA for qPCR detection. Streptavidin-coated magnetic beads were treated for 30 minutes at room temperature with the respective biotinylated peptide ligands for each recombinant protein to generate affinity resins for the assays. The liganded beads were blocked with excess biotin and washed with blocking buffer (SeaBlock (Pierce), 1% BSA, 0.05% Tween 20, 1 mM DTT) to remove unbound ligand and to reduce nonspecific binding. Binding reactions were assembled by combining recombinant protein, liganded affinity beads, and test compounds in 1× binding buffer (20% SeaBlock, 0.17×PBS, 0.05% Tween 20, 6 mM DTT). Test compounds were prepared as 111X stocks in 100% DMSO. The compounds were then diluted directly into the assays such that the final concentration of DMSO was 0.9%. The assay plates were incubated at room temperature with shaking for 1 hour and the affinity beads were washed with wash buffer (1×PBS, 0.05% Tween 20). The beads were then re-suspended in elution buffer (1×PBS, 0.05% Tween 20, 0.5 μM non-biotinylated affinity ligand) and incubated at room temperature with shaking for 30 minutes. The recombinant protein concentration in the eluates was measured by qPCR. Kds were determined using an 11-point 3-fold compound dilution series with three DMSO control points.

[1] = test system: drug-resistant cell lines of Table 3; test: Cell line growth retardation assay, resistant cohort; type: cell-based, Human; conditions: Homo sapiens, 144 h; arithmetic mean of IC50s over the resistant cohort of Table 3, 6 days growth; read-out: AvgRes IC50
Description: (§1) Cells were seeded at densities of 1,000-5,000 cells per well in 48-well tissue culture plates. After a 24 h rest period, cells were treated with compound at 10 μM, 1 μM, […], 0.08 μM, 0.016 μM, and 0.0032 μM. A group of cells were treated with the vehicle in which the compound was prepared and served as a control. Prior to treatment, cells were counted and this count was used as a baseline for the calculation of growth inhibition. The cells were grown in the presence of compounds for 6 days and were counted on day 6. All cell counting was performed using a Synentec Cellavista plate imager. Growth inhibition was calculated as a ratio of cell population doublings in the presence of compound versus the absence of compound. […] IC50 values for each compound were calculated by fitting curves to data points from each dose-response assay using the Proc NLIN function in SAS for Windows version 9.2 (SAS Institute, Inc.).
(§2) Human cancer cell lines were grouped as “sensitive” or “resistant” to MCL1 inhibition based on whether their growth was retarded by AMG-176 (i.e., (1′S,11R,12S,14E,16S,16aR,18aR)-6′-Chloro-3′,4′,12,13,16,16a,17,18,18a,19-decahydro-16-methoxy-11,12-dimethyl-,Spiro[5,7-etheno-1H,11H-cyclobut[i][1,4]oxazepino[3,4-f][1,2,7]thiadiazacyclohexadecine-2(3H),1′(2′H)-naphthalen]-8(9H)-one 10,10-dioxide) or MIK665 (i.e., (R)-2-((5-(3-chloro-2-methyl-4-(2-(4-methylpiperazin-1-yl)ethoxy)phenyl)-6-(4-fluorophenyl)thieno[2,3-d]pyrimidin-4-yl)oxy)-3-(2-((2-(2-methoxyphenyl)pyrimidin-4-yl)methoxy)phenyl)propanoic acid) (data not shown; see Table 3). These sensitive and resistant cohorts were interrogated for response to each compound, and IC50S were calculated for each cell line using the same technique described above. Average IC50S for the sensitive (“AvgSen IC50”) and resistant (“AvgRes IC50”) cohorts were calculated as arithmetic means of the group, and fold differences (“Fold Diff”) between the resistant and sensitive cohorts were calculated by diving the average IC50 for the resistant cohort by the average IC50 for the sensitive cohort. “A” represents an IC50 of 1 μM or less, “B” represents an IC50 of greater than 1 μM to 5 μM, “C” represents an IC50 of greater than 5 μM, “+” represents a fold difference of 10 or more, and “−” represents a fold difference less than 10.

[2] = test system: drug-sensitive cell lines of Table 3; test: Cell line growth retardation assay, sensitive cohort; type: cell-based, Human; conditions: for IC50: Homo sapiens, 144 h, arithmetic mean of IC50s over the sensitive cohort of Table 3, 6 days growth, read-out: AvgSen IC50; for Fold Diff: average IC50 of resistant cohort divided by average IC50 of sensitive cohort
Description: as §1, §2

Sequence of MCL1 (Q07820 whole entry): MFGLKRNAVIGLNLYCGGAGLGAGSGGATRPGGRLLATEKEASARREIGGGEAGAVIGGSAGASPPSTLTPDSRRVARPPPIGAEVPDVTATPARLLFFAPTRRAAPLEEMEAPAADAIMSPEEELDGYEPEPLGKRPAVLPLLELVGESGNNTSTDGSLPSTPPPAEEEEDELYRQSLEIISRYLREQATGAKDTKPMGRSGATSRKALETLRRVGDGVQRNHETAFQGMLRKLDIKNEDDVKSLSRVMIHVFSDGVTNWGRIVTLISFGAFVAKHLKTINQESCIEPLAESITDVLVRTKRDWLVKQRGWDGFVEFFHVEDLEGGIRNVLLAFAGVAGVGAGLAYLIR

`Cc1c(-c2cc(-c3nn(C)c4cc(Cl)ccc34)cc3snc(O[C@H](Cc4ccccc4OCc4ccnn4CC(F)(F)F)C(=O)O)c23)ccc(OCCN2CCN(C)CC2)c1Cl` [Compound 94] gave a Kd (MCL1) greater than 1500 nM, an IC50 [1] greater than 5000 nM and an IC50 [2] greater than 5000 nM. For the same molecule, the “Fold Diff” value [2] was “− (“−” represents a fold difference less than 10)”.

`COCc1ccccc1-c1nccc(COc2ccccc2C[C@@H](Oc2nsc3cnc(-c4cccc(OC)c4)c(-c4ccc(OCCN5CCN(C)CC5)c(Cl)c4C)c23)C(=O)O)n1` (atropisomer, axis not shown) [Compound 65] gave a Kd (MCL1) of no more than 100 nM, an IC50 [1] greater than 5000 nM and an IC50 [2] of no more than 1000 nM. The “Fold Diff” value [2] was “+ (“+” represents a fold difference of 10 or more)”.

Work on `COc1ccc(F)cc1-c1nccc(COc2ccccc2C[C@@H](Oc2nsc3cnc(C4CCC4)c(-c4ccc(OCCN5CCN(C)CC5)c(Cl)c4C)c23)C(=O)O)n1` (atropisomer, axis not shown) [Compound 73] yielded a Kd (MCL1) of no more than 100 nM, an IC50 [1] greater than 5000 nM and an IC50 [2] of no more than 1000 nM. The “Fold Diff” value [2] was “+ (“+” represents a fold difference of 10 or more)”.

With `COc1ccccc1-c1nccc(COc2ccccc2C[C@@H](Oc2nsc3cnc(-c4ccc(F)c(Cl)c4)c(-c4ccc(OCCN5CCN(C)CC5)c(Cl)c4C)c23)C(=O)O)n1` (atropisomer, axis not shown) [Compound 88] the Kd (MCL1) was no more than 100 nM, the IC50 [1] was greater than 5000 nM and the IC50 [2] was no more than 1000 nM. The “Fold Diff” value [2] was “+ (“+” represents a fold difference of 10 or more)”.

`COc1cccc(-c2ncc3snc(O[C@H](Cc4ccccc4OCc4ccnc(OCCC(F)(F)F)n4)C(=O)O)c3c2-c2ccc(OCCN3CCN(C)CC3)c(Cl)c2C)c1` (atropisomer, axis not shown) [Compound 57] gave a Kd (MCL1) of no more than 100 nM, an IC50 [1] greater than 5000 nM and an IC50 [2] of no more than 1000 nM. The “Fold Diff” value [2] was “+ (“+” represents a fold difference of 10 or more)”.

For `Cc1c(-c2c(-c3cccc(F)c3)ncc3snc(O[C@H](Cc4ccccc4OCc4ccnc(OCC(F)(F)F)n4)C(=O)O)c23)ccc(OCCN2CCN(C)CC2)c1Cl` (atropisomer, axis not shown) [Compound 69], the Kd (MCL1) was no more than 100 nM, the IC50 [1] was greater than 5000 nM and the IC50 [2] was no more than 1000 nM. The “Fold Diff” value [2] was “+ (“+” represents a fold difference of 10 or more)”.

Work on `CCn1cc(-c2ncc3snc(O[C@H](Cc4ccccc4OCc4ccnc(-c5ccccc5OC)n4)C(=O)O)c3c2-c2ccc(OCCN3CCN(C)CC3)c(Cl)c2C)cn1` (atropisomer, axis not shown) [Compound 75] yielded a Kd (MCL1) of 101 to 500 nM, an IC50 [1] greater than 5000 nM and an IC50 [2] greater than 5000 nM. The “Fold Diff” value [2] was “− (“−” represents a fold difference less than 10)”.

In the case of `COc1cccc(-c2ncc3snc(O[C@H](Cc4ccccc4OCc4ccnc(-c5ccccc5OC)n4)C(=O)O)c3c2-c2ccc(OCC3CCCN3C)c(Cl)c2C)c1` (stereo partly shown) [Compound 48], the IC50 [1] is reported as greater than 5000 nM, the IC50 [2] is reported as no more than 1000 nM and the “Fold Diff” value [2] is reported as “+ (“+” represents a fold difference of 10 or more)”.

`Cn1nc(-c2cc(CC3CCC3)c3c(O[C@H](Cc4ccccc4OCc4ccnn4CC(F)(F)F)C(=O)O)nsc3c2)c2ccc(Cl)cc21` [Compound 96] showed a Kd (MCL1) greater than 1500 nM, an IC50 [1] greater than 5000 nM and an IC50 [2] greater than 5000 nM. The “Fold Diff” value [2] was “− (“−” represents a fold difference less than 10)”.

For `COc1ccccc1-c1nccc(COc2ccccc2C[C@@H](Oc2nsc3cnc(C4CCC4)c(-c4ccc(OCCN5CCOCC5)c(Cl)c4C)c23)C(=O)O)n1` (atropisomer, axis not shown) [Compound 108], the Kd (MCL1) was no more than 100 nM, the IC50 [1] was greater than 5000 nM and the IC50 [2] was 1000 to 5000 nM. For the same molecule, the “Fold Diff” value [2] was “− (“−” represents a fold difference less than 10)”.

With `COc1cccc(-c2ncc3snc(O[C@H](Cc4ccccc4OCc4ccnc(N5CCC(OC(F)F)CC5)n4)C(=O)O)c3c2-c2ccc(OCCN3CCN(C)CC3)c(Cl)c2C)c1` (atropisomer, axis not shown) [Compound 63] the Kd (MCL1) was 501 to 1500 nM, the IC50 [1] was greater than 5000 nM and the IC50 [2] was 1000 to 5000 nM. For the same molecule, the “Fold Diff” value [2] was “− (“−” represents a fold difference less than 10)”.

`COc1ccccc1-c1nccc(COc2ccccc2C[C@@H](Oc2nsc3cc(-c4nn(C)c5cc(Cl)ccc45)cc(-c4ccc(OCCN5CCN(C)CC5)c(Cl)c4C)c23)C(=O)O)n1` [Compound 97] gave a Kd (MCL1) of 501 to 1500 nM, an IC50 [1] greater than 5000 nM and an IC50 [2] of 1000 to 5000 nM. The “Fold Diff” value [2] was “− (“−” represents a fold difference less than 10)”.

Molecule `COc1cccc(-c2ncc3snc(O[C@H](Cc4ccccc4OCc4ccnc(-c5ccccc5S(C)(=O)=O)n4)C(=O)O)c3c2-c2ccc(OCCN3CCN(C)CC3)c(Cl)c2C)c1` (atropisomer, axis not shown) [Compound 68] has a Kd (MCL1) of no more than 100 nM, an IC50 [1] greater than 5000 nM and an IC50 [2] of 1000 to 5000 nM. For the same molecule, the “Fold Diff” value [2] was “− (“−” represents a fold difference less than 10)”.

`Cc1c(-c2c(C3CCC3)ncc3snc(O[C@H](Cc4ccccc4OCc4ccnc(-c5ccc(OCc6ccccc6)nc5)n4)C(=O)O)c23)ccc(OCCN2CCN(C)CC2)c1Cl` (atropisomer, axis not shown) [Compound 113] was tested, and the Kd (MCL1) was greater than 1500 nM, the IC50 [1] was greater than 5000 nM and the IC50 [2] was greater than 5000 nM. For the same molecule, the “Fold Diff” value [2] was “− (“−” represents a fold difference less than 10)”.

For `Cc1c(-c2c(C3CCC3)ncc3snc(O[C@H](Cc4ccccc4OCc4ccnc(-c5cccc(OC(F)(F)F)c5)n4)C(=O)O)c23)ccc(OCCN2CCN(C)CC2)c1Cl` (atropisomer, axis not shown) [Compound 117], the Kd (MCL1) was 101 to 500 nM, the IC50 [1] was greater than 5000 nM and the IC50 [2] was 1000 to 5000 nM. The “Fold Diff” value [2] was “− (“−” represents a fold difference less than 10)”.

In the case of `Cc1c(-c2c(C3CCC3)ncc3snc(O[C@H](Cc4ccccc4OCc4ccnc(-c5ccc(N6CCOCC6)cc5)n4)C(=O)O)c23)ccc(OCCN2CCN(C)CC2)c1Cl` (atropisomer, axis not shown) [Compound 123], the IC50 [1] is reported as greater than 5000 nM, the IC50 [2] is reported as no more than 1000 nM and the “Fold Diff” value [2] is reported as “+ (“+” represents a fold difference of 10 or more)”.

With `Cc1c(-c2c(C3CCC3)ncc3snc(O[C@H](Cc4ccccc4OCc4ccnc(-c5cccc(-c6ccn(C)n6)c5)n4)C(=O)O)c23)ccc(OCCN2CCN(C)CC2)c1Cl` (atropisomer, axis not shown) [Compound 121] the IC50 [1] was greater than 5000 nM, the IC50 [2] was no more than 1000 nM and the “Fold Diff” value [2] was “+ (“+” represents a fold difference of 10 or more)”.

With `Cc1c(-c2c(C3CCC3)ncc3snc(O[C@H](Cc4ccccc4OCc4ccnc(-c5ccc(C(=O)N6CCC6)cc5)n4)C(=O)O)c23)ccc(OCCN2CCN(C)CC2)c1Cl` (atropisomer, axis not shown) [Compound 122] the IC50 [1] was greater than 5000 nM, the IC50 [2] was no more than 1000 nM and the “Fold Diff” value [2] was “+ (“+” represents a fold difference of 10 or more)”.

For `Cc1c(-c2c(-c3ccc4sccc4c3)ncc3snc(O[C@H](Cc4ccccc4OCc4ccnn4CC(F)(F)F)C(=O)O)c23)ccc(OCCN2CCN(C)CC2)c1Cl` (atropisomer, axis not shown) [Compound 8], the Kd (MCL1) was greater than 1500 nM.

With `CCOC(=O)[C@@H](Cc1ccccc1OCc1ccnc(-c2ccccc2OC)n1)Oc1nsc2cnc(C3CCC3)c(-c3ccc(OCCN4CCN(C)CC4)c(Cl)c3C)c12` [Compound 103] the Kd (MCL1) was greater than 1500 nM.

In the case of `COc1ccccc1-c1nccc(COc2ccccc2C[C@@H](Oc2nsc3cnc(C4CCC4)c(-c4ccc(OCCN5CCN(C)CC5)c(Cl)c4C)c23)C(=O)CCc2oc(=O)oc2C)n1` (atropisomer, axis not shown) [Compound 120], the IC50 [1] is reported as greater than 5000 nM, the IC50 [2] is reported as no more than 1000 nM and the “Fold Diff” value [2] is reported as “+ (“+” represents a fold difference of 10 or more)”.
